Converted amounts (≈) assume the structure as drawn. Read-outs that look alike come from different tables or passages of the source.
Columns and labels:
physchem [1] = test: physchem
Experimental: Measurements were taken via LC/MS.
Stir bars were removed and samples centrifuged at 15,000 g for 15 minutes to separate the phases, and pipette and syringe were used to remove the upper (octanol) and lower (buffer) phases to empty tubes, respectively. Aliquots of 5 ni, were taken from upper phases and diluted with 495 ni, of methanol. Aliquots of 50 ni, were taken from lower phases and diluted with 450 ni, of methanol. Reference solutions of progesterone or metopolol were also prepared and tested as standards.

[2] = Solubility determination in PBS by LC/MS/MS; details: for solubility at 2 h: kinetic from dmso stock
[3] = design: concentration or dose not given beside the values; details: cited from earlier work
[4] = design: concentration or dose not given beside the values; details: cited from earlier work; remark: listed apart in the source
physchem [5] = details: 25 °C, kinetic from dmso stock
[6] = rats, 300 μmol/kg intraperitoneally immediately after uranyl acetate; cited from earlier work
[7] = PBS pH 4.0, 25 °C, pH 4, aqueous buffer
[8] = PBS pH 7.4, 25 °C, pH 7.4, aqueous buffer

SMILES	logD at 1 h (physchem [1]; pH 7.4)	solubility at 2 h [2, 7]	solubility at 2 h [2, 8]	Rodent ICE [3]	also measured
COCCOCCOc1ccc(C2=NC(C)(C(=O)O)CN2)c(O)c1 (centres unmarked) [Example 3, 2-(2-hydroxy-4-(2-(2-methoxyethoxy)ethoxy)phenyl)-4-methyl-4,5-dihydro-1H-imidazole-4-carboxylic acid]	-1.87	302 µM (≈ 102 µg/mL)	299 µM (≈ 101 µg/mL)		
COCCOCCOc1cccc(C2=NC(C)(C(=O)O)CN2)c1O (centres unmarked) [Example 5, 2-(2-hydroxy-3-(2-(2-methoxyethoxy)ethoxy)phenyl)-4-methyl-4,5-dihydro-1H-imidazole-4-carboxylic acid]	-2.09	306 µM (≈ 104 µg/mL)	311 µM (≈ 105 µg/mL)		
COCCOCCOCCOCCOc1ccc(C2=N[C@@](C)(C(=O)O)CS2)c(O)c1 [Example C, (S)-2-(4-(2,5,8,11-tetraoxamidecan-13-yloxy)-2-hydroxyphenyl)-4-methyl-4,5-dihydrothiazole-4-carboxylic acid]				12.0 ± 1.5%	Primate ICE [4]: 9.8 ± 1.9%
COCCOCCOCCOc1ccc(C2=NC(C)(C(=O)O)CN2)c(O)c1 (centres unmarked) [Example 4, 2-(2-hydroxy-4-(2-(2-(2-methoxyethoxy)ethoxy)ethoxy)phenyl)-4-methyl-4,5-dihydro-1H-imidazole-4-carboxylic acid]	-2.13	313 µM (≈ 120 µg/mL)	316 µM (≈ 121 µg/mL)		
COCCOCCOCCOc1cccc(C2=N[C@@](C)(C(=O)O)CS2)c1O [Example E, (S)-2-(2-hydroxy-3-(2-(2-(2-methoxyethoxy)ethoxy)ethoxy)phenyl)-4-methyl-4,5-dihydrothiazole-4-carboxylic acid]				10.6 ± 4.4%b	Primate ICE [4]: 23.0 ± 4.1%
COCCOCCOCCOCCOc1cccc(C2=N[C@@](C)(C(=O)O)CS2)c1O [Example F, (S)-2-(3-(2,5,8,11-tetraoxamidecan-13-yloxy)-2-hydroxyphenyl)-4-methyl-4,5-dihydrothiazole-4-carboxylic acid]				12.4 ± 1.7%	Primate ICE [4]: 9.6 ± 4.9%
COCCOCCOc1cccc(C2=N[C@@](C)(C(=O)O)CS2)c1O [Example D, (S)-2-(2-hydroxy-3-(2-(2-methoxyethoxy)ethoxy)phenyl)-4-methyl-4,5-dihydrothiazole-4-carboxylic acid]				15.1 ± 2.0%	Primate ICE [4]: 22.5 ± 6.4%
CC(=O)[C@H]1CC[C@H]2[C@@H]3CCC4=CC(=O)CC[C@]4(C)[C@H]3CC[C@]12C [progesterone]					logD at 1 h (physchem [1]): 3.71
COCCc1ccc(OCC(O)CNC(C)C)cc1 (centres unmarked) [metopolol]					LogD (physchem [1]; pH 7.4): −0.27
COCCOCCOCCOc1ccc(C2=N[C@@](C)(C(=O)O)CS2)c(O)c1 [Example B, (S)-2-(2-hydroxy-4-(2-(2-(2-methoxyethoxy)ethoxy)ethoxy)phenyl)-4-methyl-4,5-dihydrothiazole-4-carboxylic acid]	-1.45	307 µM (≈ 123 µg/mL)	313 µM (≈ 125 µg/mL)	5.5 ± 1.9%	Primate ICE [4]: 25.4 ± 7.4%; % Dose Cleared [6]: 22%; Uranium Excretion [6]: 626 ± 123 µg/kg; Uranium Excretion vs. Control [6]: 2.2
O=C(O)Cc1ccccc1Nc1c(Cl)cccc1Cl [diclofenac]		7.47 µM (≈ 2.21 µg/mL)			Solubility at pH 7.4 ([2]; PBS pH 7.4, 25° C., 2 hours, assay upper limit 300 μM): 273.38 μM

The next lines start with results.

logD at 1 h (physchem [1]; pH 7.4)	solubility at 2 h [2, 7]	solubility at 2 h [2, 8]	SMILES	Rodent ICE [3]	also measured
-1.14			COCCOCCOc1ccc(C2=N[C@@](C)(C(=O)O)CS2)c(O)c1 [Example A, (S)-2-(2-hydroxy-4-(2-(2-methoxyethoxy)ethoxy)phenyl)-4-methyl-4,5-dihydrothiazole-4-carboxylic acid]	26.7 ± 4.7%	Primate ICE ([4]; capsule): 26.3 ± 9.9%; Primate ICE ([4]; sodium salt): 28.7 ± 12.4%; solubility at 2 h (physchem [5]; pH 4, aqueous buffer): 309 µM (≈ 110 µg/mL); solubility at 2 h (physchem [5]; pH 7.4, aqueous buffer): 305 µM (≈ 108 µg/mL)
-1.77	297 µM (≈ 114 µg/mL)	291 µM (≈ 112 µg/mL)	COCCOCCOCCOc1ccc(C2=NC(C)(C(=O)O)CO2)c(O)c1 (centres unmarked) [Example 2, 2-(2-hydroxy-4-(2-(2-(2-methoxyethoxy)ethoxy)ethoxy)phenyl)-4-methyl-4,5-dihydrooxazole-4-carboxylic acid]		
-2.24	294 µM (≈ 94.7 µg/mL)	297 µM (≈ 95.7 µg/mL)	COCCOCCOc1ccc(-n2ccc(C(=O)O)n2)c(O)c1 [Example 7, 1-(2-hydroxy-4-(2-(2-methoxyethoxy)ethoxy)phenyl)-1H-pyrazole-3-carboxylic acid]		
-1.39	309 µM (≈ 105 µg/mL)	312 µM (≈ 106 µg/mL)	COCCOCCOc1ccc(C2=NC(C)(C(=O)O)CO2)c(O)c1 (centres unmarked) [Example 1, 2-(2-hydroxy-4-(2-(2-methoxyethoxy)ethoxy)phenyl)-4-methyl-4,5-dihydrooxazole-4-carboxylic acid]		
-1.98	311 µM (≈ 119 µg/mL)	311 µM (≈ 119 µg/mL)	COCCOCCOCCOc1cccc(C2=NC(C)(C(=O)O)CN2)c1O (centres unmarked) [Example 6, 2-(2-hydroxy-3-(2-(2-(2-methoxyethoxy)ethoxy)ethoxy)phenyl)-4-methyl-4,5-dihydro-1H-imidazole-4-carboxylic acid]		
-2.14	300 µM (≈ 110 µg/mL)	298 µM (≈ 109 µg/mL)	COCCOCCOCCOc1ccc(-n2ccc(C(=O)O)n2)c(O)c1 [Example 8, 1-(2-hydroxy-4-(2-(2-(2-methoxyethoxy)ethoxy)ethoxy)phenyl)-1H-pyrazole-3-carboxylic acid]		

Source: US20130053387A1, “DESAZADESFERROTHIOCIN AND DESAZADESFERROTHIOCIN POLYETHER ANALOGUES AS METAL CHELATION AGENTS” (FerroKin BioScience, Inc., priority 2010, published 2013)
